Literature values in patent US20250339338A1, “BLOOD STORAGE CONTAINER CONTAINING AQUEOUS COMPOSITION FOR THE STORAGE OF RED BLOOD CELLS” (Hemerus Medical, LLC, priority 2013, published 2025).

System: humans
Settings: in vivo

SMILES: CCCCC(CC)COC(=O)c1ccccc1C(=O)OCC(CC)CCCC (stereo not shown) [DEHP, di-ethylhexyl phthalate]
- adverse health effects found in studies in humans: adverse health effects such as respiratory distress, choleostasis, and histological abnormalities of the liver
